Test results published in patent US9421157B2, “Use of C-glycoside derivatives as pro-desquamating active agents” (L'OREAL, priority 2006, dated 2016).

System: corneodesmosine
Experiment: Desquamating activity: immunodetection of corneodesmosine on varnish strippings of dry skin after incubation with product
Format: biochemical
Conditions: 7% by weight in Arlacel/Myrj base, 5 days at 37° C., 70% relative humidity
Experimental: In this test, corneodesmosine is sought by immunodetection after incubation. Corneodesmosine is one of the key markers of desquamation of […]. It is studied on an immunoblot after electrophoresis separation and transfer onto a membrane.
3×3.5 cm rectangles are cut out of varnish strippings performed on the calf area of legs bearing dry skin. They are each treated with 42 mg of product (4 mg/cm^2). Controls and tests are performed in parallel. A blank without product is prepared under the same conditions.
The tests are incubated at 37° C. and 70% relative humidity for 5 days. The controls are stored for 5 days at −20° C. Thus, 5 tests and 5 controls are obtained.
For each of the samples, acetone powders are prepared and weighed out. The proteins are extracted with 100 μl/mg of whole Laemmli buffer. They are assayed according to the Bradford method. The protein content of each sample is adjusted and allows a direct comparison of the various samples. The proteins are separated by SDS-Page electrophoresis on 12% acrylamide gel.
After transferring the proteins onto a PVDF membrane, the immunodetection is performed with the anticorneodesmosine antibody G3619 (Guy Serre) at 1/12500 according to a standard western blot technique. Revelation is performed by chemiluminescence. The bands detected by the Fluor Smax machine (Biorad) are quantified with the quantity-one software (Biorad).

Structure (SMILES)	degradation of corneodesmosine (result in words)
CC(O)C[C@@H]1OC[C@@H](O)[C@H](O)[C@H]1O (stereo partly drawn) [C-β-D-xylopyranoside-2-hydroxypropane]	positive effect
OCC(O)CO [Glycerol]	substantial degradation of corneodesmosine
